Measurements taken from ChEMBL document CHEMBL3301458, “MMV Malaria Box hERG screening”.
Calls of active or inactive are those of the source. No rule for the calls is given here.

Assays:
hERG (Kv11.1, KCNH2) [1] = target: T1, hERG (Kv11.1, KCNH2) (Homo sapiens, UniProt Q12809); assay: in vitro
Description: MMV: Malaria Box compounds were tested for inhibition of the human ether a go-go related gene (hERG), Kv11.1 channel, using IonWorks 384-well patch clamp electrophysiology at 1.1uM (3 independent assay plates up to 12 cells per concentration).

hERG (Kv11.1, KCNH2) [2] = target: T1, hERG (Kv11.1, KCNH2); assay: in vitro; remark: listed apart in the source
Description: MMV: Malaria Box compounds were tested for inhibition of the human ether a go-go related gene (hERG), Kv11.1 channel, using IonWorks 384-well patch clamp electrophysiology at 11.1uM (3 independent assay plates up to 12 cells per concentration).

T1 sequence (Q12809 whole entry): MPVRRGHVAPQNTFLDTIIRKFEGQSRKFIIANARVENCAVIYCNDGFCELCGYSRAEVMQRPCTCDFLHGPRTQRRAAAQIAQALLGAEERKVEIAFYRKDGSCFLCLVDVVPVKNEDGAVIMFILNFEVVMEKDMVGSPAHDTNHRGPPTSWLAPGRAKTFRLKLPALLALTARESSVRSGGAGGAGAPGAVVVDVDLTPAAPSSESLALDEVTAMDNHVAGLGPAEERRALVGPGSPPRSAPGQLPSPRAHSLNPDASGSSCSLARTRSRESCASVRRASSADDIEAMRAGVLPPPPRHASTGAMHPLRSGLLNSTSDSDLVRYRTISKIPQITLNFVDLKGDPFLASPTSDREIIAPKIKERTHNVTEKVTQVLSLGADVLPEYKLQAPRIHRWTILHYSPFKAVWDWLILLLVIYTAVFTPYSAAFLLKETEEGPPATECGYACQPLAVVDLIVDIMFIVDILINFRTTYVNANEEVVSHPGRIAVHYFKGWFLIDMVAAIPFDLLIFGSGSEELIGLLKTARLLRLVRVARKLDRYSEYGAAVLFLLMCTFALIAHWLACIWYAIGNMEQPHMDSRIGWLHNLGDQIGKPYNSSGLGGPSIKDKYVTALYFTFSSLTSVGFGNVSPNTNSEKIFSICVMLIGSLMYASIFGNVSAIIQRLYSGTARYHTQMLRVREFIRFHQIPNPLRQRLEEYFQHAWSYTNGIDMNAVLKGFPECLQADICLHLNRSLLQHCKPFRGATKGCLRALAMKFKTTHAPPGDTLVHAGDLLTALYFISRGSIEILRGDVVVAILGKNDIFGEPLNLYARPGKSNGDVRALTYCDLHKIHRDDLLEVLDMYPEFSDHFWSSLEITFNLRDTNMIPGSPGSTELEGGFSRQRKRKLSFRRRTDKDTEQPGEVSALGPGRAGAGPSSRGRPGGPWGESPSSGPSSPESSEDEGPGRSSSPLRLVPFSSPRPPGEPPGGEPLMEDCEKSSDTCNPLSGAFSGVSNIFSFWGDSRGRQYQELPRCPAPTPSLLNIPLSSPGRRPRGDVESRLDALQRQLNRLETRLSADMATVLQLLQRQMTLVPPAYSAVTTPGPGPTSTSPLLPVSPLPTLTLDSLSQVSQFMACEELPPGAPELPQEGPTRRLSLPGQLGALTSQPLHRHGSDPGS

Row | Structure (SMILES) | inhibition at 1.1 µM (hERG (Kv11.1, KCNH2) [1]) | inhibition at 11.1 µM (hERG (Kv11.1, KCNH2) [2])
1 | CCOc1cc(CNC(C)C(O)c2ccccc2)cc(Cl)c1OCC (stereo unspecified) | 2% | 48%
2 | Nc1nc(Nc2cccc(F)c2)nc2ccccc12 | 11% | 59% (active)
3 | CCOc1c(Cl)cc(CNCC(O)c2ccccc2)cc1OC (stereo unspecified) | 16% | 66% (active)
4 | COc1ccc2nc(C)cc(Nc3ccccc3O)c2c1 | 18% | 57% (active)
5 | COc1ccc(-c2nc(N3CCN(C(=O)C4CCCCC4)CC3)c3c4c(sc3n2)CCCC4)cc1 | 7% | 17% (inactive)
6 | CCn1nc(-c2ccc(C(=O)OC)cc2)nc2c(=O)n(C)c(=O)nc1-2 | -2% | 9% (inactive)
7 | CCOc1ccccc1CN1CCc2nc3cc(C(C)(C)C)nn3c(O)c2C1 | -1% | 58% (active)
8 | CCCCCC(=O)N1c2ccccc2N=C2CC(c3ccc(OC)c(OC)c3)CC(O)=C2C1c1ccc(C(F)(F)F)cc1 (stereo unspecified) | 9% | 23% (inactive)
9 | COc1ccc(-n2ccnc2SCC(=O)Nc2cc(C)ccc2C)c(OC)c1 | 5% | 29%
10 | CCN1CCN(Cc2ccc(NC(=O)c3cc4ccc5cccnc5c4[nH]3)cc2)CC1 | 41% | 106% (active)
11 | COc1cccc(Nc2nc(NCCO)c3ccccc3n2)c1 | 18% | 57% (active)
12 | COc1ccc(C(=O)Nc2ccc3nc(N4CCCCC4)cc(C)c3c2)cc1OC | 63% | 96%
13 | COCCNCC(O)Cn1c2ccc(Cl)cc2c2cc(Cl)ccc21 (stereo unspecified) | 14% | 83% (active)
14 | COc1ccc(N2CCN(C(CNC(=O)C3CCCCC3)c3ccc4c(c3)OCO4)CC2)cc1 (stereo unspecified) | 17% | 51% (active)
15 | O=C(NC1CCN(Cc2ccccc2)CC1)c1cc(-c2ccncc2)nc2ccc(Cl)cc12 | 14% | 72% (active)
16 | COc1cccc(Nc2nc(N)c3ccccc3n2)c1 | 10% | 9% (inactive)
17 | Cc1ccc(C(=O)c2oc3ccc4c(C)cc(=O)oc4c3c2C)cc1 | -3% | 7% (inactive)
18 | CCC(O)c1ccc(Br)cc1NC(=O)c1cccc(Cl)c1 (stereo unspecified) | 13% | 22% (inactive)
19 | CN(C)CCCNCc1ccc(-c2ccc(F)c(Cl)c2)o1 | 3% | 48%
20 | Cn1c(=O)c2cc(C(=O)NCCCN3CCCCCC3)sc2c2ccccc21 | -5% | 6% (inactive)
21 | Cc1[nH]c(-c2ccc(F)cc2)cc1C(=O)NC1CCN(Cc2ccccc2)CC1 | 55% | 96%
22 | Cc1sc2ncnc(Sc3nc4ccccc4[nH]3)c2c1C | 8% | 16% (inactive)
23 | CC1CN(C(=O)c2sc3ccccc3c2Cl)CC(C)O1 (stereo unspecified) | 4% | 10% (inactive)
24 | CCC(=O)Nc1nnc(Cc2ccc(OC)c(OC)c2)s1 | -1% | -7% (inactive)
25 | Oc1ccccc1CN1CCN(C(c2ccccc2)c2ccccc2)CC1 | 13% | 12% (inactive)

Row | Structure (SMILES) | inhibition at 1.1 µM (hERG (Kv11.1, KCNH2) [1]) | inhibition at 11.1 µM (hERG (Kv11.1, KCNH2) [2])
26 | c1ccc2c(NCCCCCCNc3c4c(nc5ccccc35)CCCC4)c3c(nc2c1)CCCC3 | 36% | 102% (active)
27 | CCC1(C)CC(CCNCc2ccccc2O)(c2ccc(C)cc2)CCO1 (stereo unspecified) | 2% | 73% (active)
28 | O=C(NCCCN1CCC(N2CCCCC2)CC1)C1=Cc2cc(Br)ccc2OC1 | 5% | 89% (active)
29 | O=C(NC1CCN(Cc2ccccc2)CC1)c1cc(C(=O)NC2CCN(Cc3ccccc3)CC2)cc(C(=O)NC2CCN(Cc3ccccc3)CC2)c1 | -2% | 39%
30 | CCN1CCN(c2cc(C)c3cc(NC(=O)c4ccc(OC)c(OC)c4)ccc3n2)CC1 | 15% | 63% (active)
31 | Fc1ccc2[nH]c3c(NCCCN4CCOCC4)ncnc3c2c1 | 24% | 77% (active)
32 | CC(=O)Nc1nnc(SCc2c(C)cc(C(C)(C)C)cc2C)s1 | 0% | 6% (inactive)
33 | Cc1ccc(Cl)cc1N1CCN(CCCNC(=O)C2CCN(c3nc4ccccc4[nH]3)CC2)CC1 | 54% | 99%
34 | COc1ccc(-c2cn3c(C(=O)Nc4ccccc4Cl)c(-c4ccccc4)c4c3n2CCCC4)cc1 | 17% | 56% (active)
35 | COc1ccc(C(=O)Nc2nonc2-c2ccc(OC)c(OC)c2)cc1Cl | 7% | 9% (inactive)
36 | O=C(Nc1ccc(CN2CCOCC2)cc1)c1ccc(-c2cc(Cl)ccc2Cl)o1 | 8% | 88% (active)
37 | CCOc1ccc(C2N(C)c3ccccc3N2C)cc1 | 2% | 7% (inactive)
38 | COc1ccc(C=C2SC(Nc3ccc(F)cc3)=NC2=O)c(OC)c1 | 44% | 96% (active)
39 | Oc1ccc2ccccc2c1CNc1nc2ccccc2[nH]1 | -5% | 21% (inactive)
40 | COc1ccc(C2NCCc3c2[nH]c2ccccc32)cc1CN1CCN(c2ccc(F)cc2)CC1 (stereo unspecified) | 18% | 113% (active)
41 | Cc1cccc(Nc2nc(N)c3ccccc3n2)c1 | 15% | 49%
42 | COc1cccc(C(=O)Nc2ccc(-c3nc4ccccc4[nH]3)cc2)c1 | 4% | 5% (inactive)
43 | CCn1c(CN2CCN(Cc3ccccc3)CC2)nc2cc(NC(=O)c3cccs3)ccc21 | 71% | 100%
44 | O=C(NC1CCN(Cc2ccccc2)CC1)c1cc(-c2cccnc2)nc2ccc(Cl)cc12 | 18% | 86% (active)
45 | CCN(Cc1ccccc1)C1CCN(Cc2cc(Br)ccc2O)CC1 | 18% | 96% (active)
46 | Nc1ccc(-c2nc3cc(Oc4ccc(Oc5ccc6[nH]c(-c7ccc(N)cc7)nc6c5)cc4)ccc3[nH]2)cc1 | 18% | 23% (inactive)
47 | CCN(CC)CCNc1ncnc2c1[nH]c1ccc(Br)cc12 | 91% | 102%
48 | CCOc1ccc(-n2cc(-c3ccccc3)c3c(SCc4cc(C)ccc4C)ncnc32)cc1 | -10% | -16% (inactive)
49 | Cc1ccc(C)c(Cn2c(N3CCC(C(=O)NCc4cccs4)CC3)nc3ccccc32)c1 | 16% | 84% (active)
50 | CCOc1cccc(C(=O)Nc2ccc(-c3nc4ccccc4[nH]3)cc2)c1 | 0% | -7% (inactive)

Row | Structure (SMILES) | inhibition at 1.1 µM (hERG (Kv11.1, KCNH2) [1]) | inhibition at 11.1 µM (hERG (Kv11.1, KCNH2) [2])
51 | Cc1cc(N(C)C)nc(Nc2ccc(NC(=O)Nc3ccccc3)cc2)n1 | 2% | -1% (inactive)
52 | Clc1cc(Br)ccc1-c1ccc(CNCC2CCNCC2)o1 | 16% | 83% (active)
53 | COc1ccccc1NC1=C(N2CCCCC2)C(=O)c2ccccc2C1=O | 4% | 16% (inactive)
54 | COc1ccc(-c2nonc2NC(=O)c2cccc(Cl)c2)cc1OC | 4% | -4% (inactive)
55 | Cc1cc(NC(=O)c2ccc(-c3ccccc3)cc2)no1 | -2% | 12% (inactive)
56 | COc1cccc(-c2nn(C)c3sc(C(=O)NCCN4CCN(c5ccccc5F)CC4)cc23)c1 | 21% | 91% (active)
57 | Oc1ccccc1CNCC12CC3CC(CC(C3)C1)C2 | 20% | 41%
58 | CNCCCNc1ccnc2cc(Cl)ccc12 | -1% | 21% (inactive)
59 | COc1cc(-c2nc(-c3ccccc3)c(-c3ccccc3)[nH]2)cc(OC)c1O | 11% | 18% (inactive)
60 | COc1ccccc1CNC(=O)CCn1c(=O)[nH]c2ccsc2c1=O | -1% | 5% (inactive)
61 | O=C(Nc1ccc(N2CCN(Cc3ccccc3)CC2)cc1)c1cccs1 | 12% | 32%
62 | COc1ccc(Br)cc1C1Nc2ccc3ccccc3c2C2=C1C(=O)CC(c1ccccc1)C2 (stereo unspecified) | -2% | 5% (inactive)
63 | O=C(Nc1ccc(-c2nc3cc4ccccc4cc3[nH]2)cc1)c1cccc(Br)c1 | -1% | -2% (inactive)
64 | Cc1ccc(-c2nc3ccccc3o2)cc1NCc1cc(Cc2ccccc2)ccc1O | 11% | 10% (inactive)
65 | O=C(Nc1ccc(N2CCCCC2)c(Cl)c1)c1ccc(Br)o1 | -3% | 41%
66 | Cc1cc(C)c2nc(N3CCC(C(=O)NCCCN4CCC(N5CCCCC5)CC4)CC3)sc2c1 | 18% | 60% (active)
67 | CC1CCN(Cc2ccc(NC(=O)c3cc4ccc5cccnc5c4[nH]3)cc2)CC1 | 64% | 101%
68 | COc1cc(SC)ccc1C(=O)N1CCCC(C)C1 (stereo unspecified) | 16% | 8% (inactive)
69 | CC(C)(C)c1ccc(C(=O)Nc2nc3ccccc3s2)cc1 | -3% | 7% (inactive)
70 | COc1cc(CNCCc2ccc(Cl)cc2)cc(OC)c1O | 16% | 59% (active)
71 | COc1cc2c(cc1OC)C1=NNC(=O)C1=NC(C)(C)C2 | 9% | 11% (inactive)
72 | CCOC(=O)C1CCN(C(=O)CN2C(=O)c3ccccc3C2c2c[nH]c3ccccc23)CC1 (stereo unspecified) | -9% | 18% (inactive)
73 | CN(C)c1ccc(N=Cc2ccc(N3CCOCC3)cc2)cc1 | -6% | -3% (inactive)
